{"source": "patent EP1433789A1", "about": "“Pyrrolopyrazines and their use as selective apoptosis inducers” (Aponetics AG, priority 2002, dated 2004)", "format_in_all_cases": "cell-based, human", "key": {"HBL 100": {"tested_on": "HBL 100", "experiment": "Hoechst 33342 nuclear staining (Table 3)", "design": "key: 0 relating to no activity; 1 relating to weak activity comprising less than 50% of the cells; score 2 relating to strong activity comprising more than 50% of the cells", "procedure,_shortened": "(§1)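 Adherent cells (3-5×10^3, pre-spread 24 h) or suspension cells (8-10×10^3) treated with compounds at 10, 3, 1 and 0.3 µM for 24 or 48 h, then Hoechst 33342 stained for 30 min. Apoptotic nuclear morphology scored by fluorescence microscopy: 0 none, 1 weak (<50% cells), 2 strong (>50% cells).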"}, "HT 1080": {"tested_on": "HT 1080", "experiment": "Hoechst 33342 nuclear staining (Table 3)", "design": "key: 0 relating to no activity; 1 relating to weak activity comprising less than 50% of the cells; score 2 relating to strong activity comprising more than 50% of the cells", "procedure,_shortened": "as §1"}, "K562": {"tested_on": "K562", "experiment": "Hoechst 33342 nuclear staining (Table 3)", "design": "key: 0 relating to no activity; 1 relating to weak activity comprising less than 50% of the cells; score 2 relating to strong activity comprising more than 50% of the cells", "procedure,_shortened": "as §1"}, "KB [1]": {"tested_on": "KB", "experiment": "Hoechst 33342 nuclear staining (Table 3)", "design": "key: 0 relating to no activity; 1 relating to weak activity comprising less than 50% of the cells; score 2 relating to strong activity comprising more than 50% of the cells", "procedure,_shortened": "as §1"}, "Ramos": {"tested_on": "Ramos", "experiment": "Hoechst 33342 nuclear staining (Table 3)", "design": "key: 0 relating to no activity; 1 relating to weak activity comprising less than 50% of the cells; score 2 relating to strong activity comprising more than 50% of the cells", "procedure,_shortened": "as §1"}, "HeLa": {"tested_on": "HeLa", "experiment": "Caspase dependencies (Hoechst 33342 readout with zVAD / zFA)", "design": "key: 0: no effect; 1: weak effect; 2: strong effect", "description": "(§2) This assay is performed in 96 well tissue culture plates. Appropriate number of cells (adherent cells: 3 - 5*10^3, suspension cells: 8 - 10*10^3) are being seeded out in 80 µl complete medium. Adherent cells are incubated for 24 h for proper spreading out before addition of test compounds while suspension cells are immediately treated with test compounds after seeding out. The test compounds are added in 20 µl complete medium containing max 5% DMSO. The final compound concentrations in the assays are 10 µM, 3 µM,1 µM and 0.3 µM, respectively. After 24 h or 48 h incubation at culture conditions, 10 µl medium containing Hoechst 33342 dye (Sigma B-2261) at 2-5 µg/ml are added to each well. The assay plates are then further incubated for 30 minutes and subsequently analyzed with a standard inverted fluorescence microscope. The readout allows the determination of the fraction of apoptotic nuclei as well as other morphological criteria specific for apoptosis as a function of the treatment. The following scores are used: 0 relating to no activity, 1 relating to weak activity comprising less than 50% of the cells and score 2 relating to strong activity comprising more than 50% of the cells.\n(§3) Caspase dependencies are being evaluated by combining the compound treatment with the pan-caspase inhibitor zVAD or its control peptide zFA (ICN Pharmaceuticals # FK009 and FK029, respectively). Both peptides are being used at 20 µM concentration. In case of caspase dependencies a clear inhibition of the specific readout in all apoptosis tests should be detected. By comparing the readout of zVAD and zFA treated samples with the compound control it is possible to detect caspase resp. cystein proteinase dependencies. In case of inhibition by zVAD but not by zFA a clear caspase dependency is obvious. An inhibition by zVAD as well as by zFA points towards the involvement of cystein proteinases in the apoptotic cascade. […]"}, "Jurkat": {"tested_on": "Jurkat", "experiment": "Caspase dependencies (Hoechst 33342 readout with zVAD / zFA)", "design": "key: 0: no effect; 1: weak effect; 2: strong effect", "description": "as §2, §3"}, "KB [2]": {"tested_on": "KB", "experiment": "Caspase dependencies (Hoechst 33342 readout with zVAD / zFA)", "design": "key: 0: no effect; 1: weak effect; 2: strong effect", "description": "as §2, §3"}}, "data": [{"smiles": "CC1(C)Cc2ccccc2-c2c(Br)c3nc4ccccc4nc3n21", "note": "[No. 2, 13-Bromo-6,6-dimethyl-5,6-dihydro-6a,7,12-triaza-dibenzo[a,h]fluorene]", "values": [{"measurement": "Hoechst 33342 nuclear staining (fraction of apoptotic nuclei), score", "setting": "HBL 100; HBL 100, 24h, 0.3 µM", "value": 0}, {"measurement": "Hoechst 33342 nuclear staining (fraction of apoptotic nuclei), score", "setting": "HBL 100; HBL 100, 24h, 1 µM", "value": 0}, {"measurement": "Hoechst 33342 nuclear staining (fraction of apoptotic nuclei), score", "setting": "HBL 100; HBL 100, 24h, 3 µM", "value": 0}, {"measurement": "Hoechst 33342 nuclear staining (fraction of apoptotic nuclei), score", "setting": "HBL 100; HBL 100, 24h, 10 µM", "value": 0}, {"measurement": "Hoechst 33342 nuclear staining (fraction of apoptotic nuclei), score", "setting": "HBL 100; HBL 100, 48h, 0.3 µM", "value": 0}, {"measurement": "Hoechst 33342 nuclear staining (fraction of apoptotic nuclei), score", "setting": "HBL 100; HBL 100, 48h, 1 µM", "value": 0}, {"measurement": "Hoechst 33342 nuclear staining (fraction of apoptotic nuclei), score", "setting": "HBL 100; HBL 100, 48h, 3 µM", "value": 0}, {"measurement": "Hoechst 33342 nuclear staining (fraction of apoptotic nuclei), score", "setting": "HBL 100; HBL 100, 48h, 10 µM", "value": "2 (score 2 relating to strong activity comprising more than 50% of the cells)"}, {"measurement": "Hoechst 33342 nuclear staining (fraction of apoptotic nuclei), score", "setting": "HT 1080; HT 1080, 24h, 0.3 µM", "value": 0}, {"measurement": "Hoechst 33342 nuclear staining (fraction of apoptotic nuclei), score", "setting": "HT 1080; HT 1080, 24h, 1 µM", "value": 0}, {"measurement": "Hoechst 33342 nuclear staining (fraction of apoptotic nuclei), score", "setting": "HT 1080; HT 1080, 24h, 3 µM", "value": 0}, {"measurement": "Hoechst 33342 nuclear staining (fraction of apoptotic nuclei), score", "setting": "HT 1080; HT 1080, 24h, 10 µM", "value": 0}, {"measurement": "Hoechst 33342 nuclear staining (fraction of apoptotic nuclei), score", "setting": "HT 1080; HT 1080, 48h, 0.3 µM", "value": 0}, {"measurement": "Hoechst 33342 nuclear staining (fraction of apoptotic nuclei), score", "setting": "HT 1080; HT 1080, 48h, 1 µM", "value": 0}, {"measurement": "Hoechst 33342 nuclear staining (fraction of apoptotic nuclei), score", "setting": "HT 1080; HT 1080, 48h, 3 µM", "value": 0}, {"measurement": "Hoechst 33342 nuclear staining (fraction of apoptotic nuclei), score", "setting": "HT 1080; HT 1080, 48h, 10 µM", "value": "1 (1 relating to weak activity comprising less than 50% of the cells)"}, {"measurement": "Hoechst 33342 nuclear staining", "setting": "K562; K562, 24h, conc 0.3 (µM)", "value": 0}, {"measurement": "Hoechst 33342 nuclear staining", "setting": "K562; K562, 24h, conc 1 (µM)", "value": 0}, {"measurement": "Hoechst 33342 nuclear staining", "setting": "K562; K562, 24h, conc 3 (µM)", "value": "1 (1 relating to weak activity comprising less than 50% of the cells)"}, {"measurement": "Hoechst 33342 nuclear staining", "setting": "K562; K562, 48h, conc 0.3 (µM)", "value": 0}, {"measurement": "Hoechst 33342 nuclear staining", "setting": "K562; K562, 48h, conc 1 (µM)", "value": 0}, {"measurement": "Hoechst 33342 nuclear staining", "setting": "K562; K562, 48h, conc 3 (µM)", "value": "2 (score 2 relating to strong activity comprising more than 50% of the cells)"}, {"measurement": "Hoechst 33342 nuclear staining", "setting": "K562; K562, 48h, conc 10 (µM)", "value": "2 (score 2 relating to strong activity comprising more than 50% of the cells)"}, {"measurement": "Hoechst 33342 nuclear staining", "setting": "KB [1]; 24h, conc 0.3 (µM)", "value": 0}, {"measurement": "Hoechst 33342 nuclear staining", "setting": "KB [1]; 24h, conc 1 (µM)", "value": 0}, {"measurement": "Hoechst 33342 nuclear staining", "setting": "KB [1]; 24h, conc 3 (µM)", "value": 0}, {"measurement": "Hoechst 33342 nuclear staining", "setting": "KB [1]; 24h, conc 10 (µM)", "value": 0}, {"measurement": "Hoechst 33342 nuclear staining", "setting": "KB [1]; 48h, conc 0.3 (µM)", "value": 0}, {"measurement": "Hoechst 33342 nuclear staining", "setting": "KB [1]; 48h, conc 1 (µM)", "value": 0}, {"measurement": "Hoechst 33342 nuclear staining", "setting": "KB [1]; 48h, conc 3 (µM)", "value": 0}, {"measurement": "Hoechst 33342 nuclear staining", "setting": "KB [1]; 48h, conc 10 (µM)", "value": 0}, {"measurement": "Hoechst 33342 nuclear staining", "setting": "Ramos; 24h, conc 0.3 (µM)", "value": 0}, {"measurement": "Hoechst 33342 nuclear staining", "setting": "Ramos; 24h, conc 1 (µM)", "value": 0}, {"measurement": "Hoechst 33342 nuclear staining", "setting": "Ramos; 24h, conc 3 (µM)", "value": 0}, {"measurement": "Hoechst 33342 nuclear staining", "setting": "Ramos; 24h, conc 10 (µM)", "value": "2 (score 2 relating to strong activity comprising more than 50% of the cells)"}, {"measurement": "Hoechst 33342 nuclear staining", "setting": "Ramos; 48h, conc 0.3 (µM)", "value": "2 (score 2 relating to strong activity comprising more than 50% of the cells)"}, {"measurement": "Hoechst 33342 nuclear staining", "setting": "Ramos; 48h, conc 1 (µM)", "value": "2 (score 2 relating to strong activity comprising more than 50% of the cells)"}, {"measurement": "Hoechst 33342 nuclear staining", "setting": "Ramos; 48h, conc 3 (µM)", "value": "2 (score 2 relating to strong activity comprising more than 50% of the cells)"}, {"measurement": "Hoechst 33342 nuclear staining", "setting": "Ramos; 48h, conc 10 (µM)", "value": "2 (score 2 relating to strong activity comprising more than 50% of the cells)"}, {"measurement": "nuclear fragmentation visualized by Hoechst 33342 staining", "setting": "HeLa; 24h, conc 10, no peptide", "value": 2}, {"measurement": "nuclear fragmentation visualized by Hoechst 33342 staining", "setting": "HeLa; 24h, conc 10, with zFA 20 µM", "value": 2}, {"measurement": "nuclear fragmentation visualized by Hoechst 33342 staining", "setting": "HeLa; 24h, conc 10, with zVAD 20 µM", "value": 1}, {"measurement": "nuclear fragmentation visualized by Hoechst 33342 staining", "setting": "HeLa; 48h, conc 10, no peptide", "value": 2}, {"measurement": "nuclear fragmentation visualized by Hoechst 33342 staining", "setting": "HeLa; 48h, conc 10, with zFA 20 µM", "value": 2}, {"measurement": "nuclear fragmentation visualized by Hoechst 33342 staining", "setting": "HeLa; 48h, conc 10, with zVAD 20 µM", "value": 2}, {"measurement": "nuclear fragmentation visualized by Hoechst 33342 staining", "setting": "Jurkat; 24h, conc 3, no peptide", "value": 2}, {"measurement": "nuclear fragmentation visualized by Hoechst 33342 staining", "setting": "Jurkat; 24h, conc 3, with zFA 20 µM", "value": 2}, {"measurement": "nuclear fragmentation visualized by Hoechst 33342 staining", "setting": "Jurkat; 24h, conc 3, with zVAD 20 µM", "value": 2}, {"measurement": "nuclear fragmentation visualized by Hoechst 33342 staining", "setting": "Jurkat; 48h, conc 3, no peptide", "value": 2}, {"measurement": "nuclear fragmentation visualized by Hoechst 33342 staining", "setting": "Jurkat; 48h, conc 3, with zFA 20 µM", "value": 2}, {"measurement": "nuclear fragmentation visualized by Hoechst 33342 staining", "setting": "Jurkat; 48h, conc 3, with zVAD 20 µM", "value": 2}, {"measurement": "nuclear fragmentation visualized by Hoechst 33342 staining", "setting": "KB [2]; 24h, conc 10, no peptide", "value": 2}, {"measurement": "nuclear fragmentation visualized by Hoechst 33342 staining", "setting": "KB [2]; 24h, conc 10, with zFA 20 µM", "value": 1}, {"measurement": "nuclear fragmentation visualized by Hoechst 33342 staining", "setting": "KB [2]; 24h, conc 10, with zVAD 20 µM", "value": 1}, {"measurement": "nuclear fragmentation visualized by Hoechst 33342 staining", "setting": "KB [2]; 48h, conc 10, no peptide", "value": 2}, {"measurement": "nuclear fragmentation visualized by Hoechst 33342 staining", "setting": "KB [2]; 48h, conc 10, with zFA 20 µM", "value": 2}, {"measurement": "nuclear fragmentation visualized by Hoechst 33342 staining", "setting": "KB [2]; 48h, conc 10, with zVAD 20 µM", "value": 2}]}]}
